Data reported in US20040147788A1, “Stilbene derivatives and their use as aryl hydrocarbon receptor antagonistic ligands” (priority 2002, published 2004).

How the values were obtained:
AhR = biological target: T1, AhR (Homo sapiens, UniProt P35869); details: in humans; cited from earlier work
T1 sequence (P35869 11-848): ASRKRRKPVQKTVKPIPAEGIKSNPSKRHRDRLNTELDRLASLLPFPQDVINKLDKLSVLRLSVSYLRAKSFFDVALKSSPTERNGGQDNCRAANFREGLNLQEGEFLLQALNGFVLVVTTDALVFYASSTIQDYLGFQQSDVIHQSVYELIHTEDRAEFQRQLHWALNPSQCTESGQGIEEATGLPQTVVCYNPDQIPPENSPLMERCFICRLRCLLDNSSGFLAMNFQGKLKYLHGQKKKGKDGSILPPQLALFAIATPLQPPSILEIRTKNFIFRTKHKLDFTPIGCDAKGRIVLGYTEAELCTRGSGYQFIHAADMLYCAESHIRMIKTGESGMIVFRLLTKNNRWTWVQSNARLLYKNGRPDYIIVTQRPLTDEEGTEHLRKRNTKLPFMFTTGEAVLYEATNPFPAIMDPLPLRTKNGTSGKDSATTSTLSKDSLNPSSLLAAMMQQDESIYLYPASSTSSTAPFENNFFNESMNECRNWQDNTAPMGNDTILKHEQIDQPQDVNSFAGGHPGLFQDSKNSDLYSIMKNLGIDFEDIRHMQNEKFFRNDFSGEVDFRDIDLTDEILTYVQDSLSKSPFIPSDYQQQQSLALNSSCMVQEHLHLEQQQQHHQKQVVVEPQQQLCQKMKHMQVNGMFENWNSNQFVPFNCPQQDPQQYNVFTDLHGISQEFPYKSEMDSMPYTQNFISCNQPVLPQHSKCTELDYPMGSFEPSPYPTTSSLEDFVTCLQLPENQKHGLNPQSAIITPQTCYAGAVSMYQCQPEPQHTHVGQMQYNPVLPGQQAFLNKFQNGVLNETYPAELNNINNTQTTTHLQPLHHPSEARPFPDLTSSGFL

CYP1A1/AHH = details: read-out: ED50 for induction of CYP1A1/AHH; porcine aortic endothelial; cited from earlier work
A549 cell line = experiment: Cytotoxicity, MTT colorimetric assay; type: cell-based, human
Protocol: Cytotoxicity was evaluated on the A549 cell line. […] A MTT colorimetric assay was employed as described in (5) according to the established procedure 1. Drug stock solutions were prepared in EtOH and the final solvent concentration was=1% EtOH(v/v), a concentration without effect on cell replication. […] Cells were cultured at 37° C. in RPMI-1640 medium with streptomycin/penicillin and 5% (v/v) FCS in a humidified atmosphere containing 5% CO2. Initial seeding densities varied among the cell lines to ensure a final absorbance reading in control cultures in the range of 0.7-1 […] units. After the addition of the samples to the cell culture, the cells were incubated for 5 days before the MTT reagent was added. Each test was performed in duplicate and absorbance readings varied no more than 5%.

ER = biological target: T2, ER (Homo sapiens, UniProt P03372); experiment: ER-mediated transactivation, ERE-driven Luciferase reporter stable cell line (MCF-7-Luc); type: cell-based; details: trans-stilbenes; further: key: Ago: agonist; N.M.: not measurable
T2 construct: stably transfecting MCF-7 cells with the ERE-globin-tk-luc-SV-Neo plasmid; endogenous in cells; host or cells: MCF-7-Luc (MCF-7 stably transfected with ERE-globin-tk-luc-SV-Neo)
T2 sequence (P03372 1-595): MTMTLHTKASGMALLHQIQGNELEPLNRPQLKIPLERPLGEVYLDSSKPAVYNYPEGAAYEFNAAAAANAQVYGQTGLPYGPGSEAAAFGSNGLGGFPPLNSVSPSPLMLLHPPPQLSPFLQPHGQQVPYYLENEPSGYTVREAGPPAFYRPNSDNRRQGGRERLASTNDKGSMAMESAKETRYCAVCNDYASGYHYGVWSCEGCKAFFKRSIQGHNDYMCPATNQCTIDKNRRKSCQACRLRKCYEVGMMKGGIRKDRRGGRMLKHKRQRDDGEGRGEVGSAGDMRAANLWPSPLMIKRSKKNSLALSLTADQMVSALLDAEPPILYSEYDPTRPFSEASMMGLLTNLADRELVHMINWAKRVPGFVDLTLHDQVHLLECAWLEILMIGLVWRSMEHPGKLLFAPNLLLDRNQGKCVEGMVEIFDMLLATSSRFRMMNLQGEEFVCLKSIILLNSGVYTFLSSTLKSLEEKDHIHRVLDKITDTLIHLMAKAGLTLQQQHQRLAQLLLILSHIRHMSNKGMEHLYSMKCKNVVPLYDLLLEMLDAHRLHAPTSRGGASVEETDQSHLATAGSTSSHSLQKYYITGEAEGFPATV
Protocol: The human adenocarcinoma breast cell line MCF-7 was obtained from the American Tissue Culture Collection (Rockville, USA). The cells were established by stably transfecting MCF-7 cells with the ERE-globin-tk-luc-SV-Neo plasmid and thus expressed luciferase in an estrogen dependent manner MCF-7-Luc. […] Cells were incubated at 37° C. in a humidified 5% CO2 incubator. For experiments, cells were grown for 5 days in phenol red-free medium, containing 5% dextran-coated charcoal treated FCS (DCC-FCS). Medium was changed after 2 days. At day 5, cells were treated or not with compounds. Compounds were dissolved in ethanol.
For each condition, 15.103 cells were seeded per well in 12-well plates and treated, as described above, during 16 hours in a final volume of 0.5 mL. At the end of the treatment, cells were washed with PBS and lysed in 150 μl of lysis buffer (Promega, Charbonnieres, France). Luciferase activity was measured using the luciferase assay reagent (Promega), according to the manufacturer's instructions. Protein concentrations were measured using Bradford technique, to normalize the luciferase activity data. For each condition, average luciferase activity was calculated from the data of 3 independent wells.

Row | ER T.A. (transcriptional activity) (ER) | Structure (SMILES) | Kd (AhR) | EC50 (CYP1A1/AHH) | cytotoxicity: not toxic up to concentration (A549 cell line)
1 | – | Clc1cc2c(cc1Cl)Oc1cc(Cl)c(Cl)cc1O2 [TCDD, 2,3,7,8-tetrachlorodibenzo-p-dioxin] | 1 nM | 0.015 nM | –
2 | Ago | Oc1ccc(C=Cc2cc(O)cc(O)c2)cc1 [Resveratrol, 3,5,4′-trihydroxystilbene, reference compound] | – | – | > 10 µM
